Test results published in patent US9873709B2 (priority 2013, dated 2018).

Test system: JAK1-dependent STAT6 phosphorylation downstream of IL-13 stimulation in TF-1 human erythroleukemia cells
Test: cells
Details: TF-1, read-out: IL-13-pSTAT6 IC50

| IC50 | SMILES |
| --- | --- |
| 0.0879 µM | O=C(N[C@H]1[C@@H]2CNC[C@@H]21)c1ccc(Nc2nc3c(C4=CCN(C(=O)CCC(F)(F)F)CC4)cccn3n2)cc1 [Example 2-454, N-[(1R,5S)-3-azabicyclo[3.1.0]hexan-6-yl]-4-[[8-[1-(4,4,4-trifluorobutanoyl)-3,6-dihydro-2H-pyridin-4-yl]-[1,2,4]triazolo[1,5-a]pyridin-2-yl]amino]benzamide] |
| 0.0055 µM | O=C(NCCN1CCCCC1)c1ccc(Nc2nc3c(C4=CCN(C(=O)CCC(F)(F)F)CC4)cccn3n2)cc1 [Example 2-455, N-[2-(1-piperidyl)ethyl]-4-[[8-[1-(4,4,4-trifluorobutanoyl)-3,6-dihydro-2H-pyridin-4-yl]-[1,2,4]triazolo[1,5-a]pyridin-2-yl]amino]benzamide] |
| 0.0075 µM | O=C(CCC(F)(F)F)N1CC=C(c2cccn3nc(Nc4ccc(C(=O)N5CCC(c6ccncc6)CC5)cc4)nc23)CC1 [Example 2-456, 4,4,4-trifluoro-1-[4-[2-[4-[4-(4-pyridyl)piperidine-1-carbonyl]anilino]-[1,2,4]triazolo[1,5-a]pyridin-8-yl]-3,6-dihydro-2H-pyridin-1-yl]butan-1-one] |
| 0.0205 µM | CN1CCC(NC(=O)c2ccc(Nc3nc4c(C5=CCN(C(=O)CCC(F)(F)F)CC5)cccn4n3)cc2)C1 (stereo not drawn) [Example 2-459, N-(1-methylpyrrolidin-3-yl)-4-[[8-[1-(4,4,4-trifluorobutanoyl)-3,6-dihydro-2H-pyridin-4-yl]-[1,2,4]triazolo[1,5-a]pyridin-2-yl]amino]benzamide] |
| 0.0276 µM | CN(Cc1ccc2ncccc2c1)C(=O)c1ccc(Nc2nc3c(C4=CCN(C(=O)CCC(F)(F)F)CC4)cccn3n2)cc1 [Example 2-460, N-methyl-N-(6-quinolylmethyl)-4-[[8-[1-(4,4,4-trifluorobutanoyl)-3,6-dihydro-2H-pyridin-4-yl]-[1,2,4]triazolo[1,5-a]pyridin-2-yl]amino]benzamide] |
| 0.0061 µM | CC1CCCN(C2CCN(C(=O)c3ccc(Nc4nc5c(C6=CCN(C(=O)CCC(F)(F)F)CC6)cccn5n4)cc3)CC2)C1 (stereo not drawn) [Example 2-461, 4,4,4-trifluoro-1-[4-[2-[4-[4-(3-methyl-1-piperidyl)piperidine-1-carbonyl]anilino]-[1,2,4]triazolo[1,5-a]pyridin-8-yl]-3,6-dihydro-2H-pyridin-1-yl]butan-1-one] |
| 0.0444 µM | O=C(CCC(F)(F)F)N1CC=C(c2cccn3nc(Nc4ccc(C(=O)N5CCN(CCn6ccnc6)CC5)cc4)nc23)CC1 [Example 2-462, 4,4,4-trifluoro-1-[4-[2-[4-[4-(2-imidazol-1-ylethyl)piperazine-1-carbonyl]anilino]-[1,2,4]triazolo[1,5-a]pyridin-8-yl]-3,6-dihydro-2H-pyridin-1-yl]butan-1-one] |
| 0.026 µM | CC(C)N1CCC(CN(C)C(=O)c2ccc(Nc3nc4c(C5=CCN(C(=O)CCC(F)(F)F)CC5)cccn4n3)cc2)C1 (stereo not drawn) [Example 2-463, N-[(1-isopropylpyrrolidin-3-yl)methyl]-N-methyl-4-[[8-[1-(4,4,4-trifluorobutanoyl)-3,6-dihydro-2H-pyridin-4-yl]-[1,2,4]triazolo[1,5-a]pyridin-2-yl]amino]benzamide] |
| 0.0091 µM | CN(C)C1CCN(C(=O)c2ccc(Nc3nc4c(C5=CCN(C(=O)CCC(F)(F)F)CC5)cccn4n3)cc2)C1 (stereo not drawn) [Example 2-464, 1-[4-[2-[4-[3-(dimethylamino)pyrrolidine-1-carbonyl]anilino]-[1,2,4]triazolo[1,5-a]pyridin-8-yl]-3,6-dihydro-2H-pyridin-1-yl]-4,4,4-trifluoro-butan-1-one] |
| 0.0094 µM | O=C(NCCN1CCOCC1)c1ccc(Nc2nc3c(C4=CCN(C(=O)CCC(F)(F)F)CC4)cccn3n2)cc1 [Example 2-465, N-(2-morpholinoethyl)-4-[[8-[1-(4,4,4-trifluorobutanoyl)-3,6-dihydro-2H-pyridin-4-yl]-[1,2,4]triazolo[1,5-a]pyridin-2-yl]amino]benzamide] |
| 0.0179 µM | O=C(NCCN1CCCC1)c1ccc(Nc2nc3c(C4=CCN(C(=O)CCC(F)(F)F)CC4)cccn3n2)cc1 [Example 2-466, N-(2-pyrrolidin-1-ylethyl)-4-[[8-[1-(4,4,4-trifluorobutanoyl)-3,6-dihydro-2H-pyridin-4-yl]-[1,2,4]triazolo[1,5-a]pyridin-2-yl]amino]benzamide] |
| 0.0209 µM | CN1CCC(CNC(=O)c2ccc(Nc3nc4c(C5=CCN(C(=O)CCC(F)(F)F)CC5)cccn4n3)cc2)CC1 [Example 2-467, N-[(1-methyl-4-piperidyl)methyl]-4-[[8-[1-(4,4,4-trifluorobutanoyl)-3,6-dihydro-2H-pyridin-4-yl]-[1,2,4]triazolo[1,5-a]pyridin-2-yl]amino]benzamide] |
| 0.0128 µM | Cc1cccc(C2CCN(C(=O)c3ccc(Nc4nc5c(C6=CCN(C(=O)CCC(F)(F)F)CC6)cccn5n4)cc3)CC2)n1 [Example 2-468, 4,4,4-trifluoro-1-[4-[2-[4-[4-(6-methyl-2-pyridyl)piperidine-1-carbonyl]anilino]-[1,2,4]triazolo[1,5-a]pyridin-8-yl]-3,6-dihydro-2H-pyridin-1-yl]butan-1-one] |
| 0.013 µM | CNC(=O)C1CN(C(=O)c2ccc(Nc3nc4c(C5=CCN(C(=O)CCC(F)(F)F)CC5)cccn4n3)cc2)CCN1CCc1ccccc1 (stereo not drawn) [Example 2-470, N-methyl-1-(2-phenylethyl)-4-[4-[[8-[1-(4,4,4-trifluorobutanoyl)-3,6-dihydro-2H-pyridin-4-yl]-[1,2,4]triazolo[1,5-a]pyridin-2-yl]amino]benzoyl] piperazine-2-carboxamide] |
| 0.0064 µM | O=C(CCC(F)(F)F)N1CC=C(c2cccn3nc(Nc4ccc(C(=O)N5CCC(Cc6ccccn6)C5)cc4)nc23)CC1 (stereo not drawn) [Example 2-471, 4,4,4-trifluoro-1-[4-[2-[4-[3-(2-pyridylmethyl)pyrrolidine-1-carbonyl]anilino]-[1,2,4]triazolo[1,5-a]pyridin-8-yl]-3,6-dihydro-2H-pyridin-1-yl]butan-1-one] |
| 0.0679 µM | CN(Cc1ccccc1)C1CCCN(C(=O)c2ccc(Nc3nc4c(C5=CCN(C(=O)CCC(F)(F)F)CC5)cccn4n3)cc2)C1 (stereo not drawn) [Example 2-472, 1-[4-[2-[4-[3-[benzyl(methyl)amino]piperidine-1-carbonyl]anilino]-[1,2,4]triazolo[1,5-a]pyridin-8-yl]-3,6-dihydro-2H-pyridin-1-yl]-4,4,4-trifluoro-butan-1-one] |

| SMILES | IC50 |
| --- | --- |
| CN1C2COCC1CN(C(=O)c1ccc(Nc3nc4c(C5=CCN(C(=O)CCC(F)(F)F)CC5)cccn4n3)cc1)C2 [Example 2-458, 4,4,4-trifluoro-1-[4-[2-[4-(9-methyl-3-oxa-7,9-diazabicyclo[3.3.1]nonane-7-carbonyl)anilino]-[1,2,4]triazolo[1,5-a]pyridin-8-yl]-3,6-dihydro-2H-pyridin-1-yl]butan-1-one] | 0.0459 µM |
| O=C(N[C@H]1CN2CCC1CC2)c1ccc(Nc2nc3c(C4=CCN(C(=O)CCC(F)(F)F)CC4)cccn3n2)cc1 [Example 2-469, N-[(3R)-quinuclidin-3-yl]-4-[[8-[1-(4,4,4-trifluorobutanoyl)-3,6-dihydro-2H-pyridin-4-yl]-[1,2,4]triazolo[1,5-a]pyridin-2-yl]amino]benzamide] | 0.0838 µM |
